Assay results from paper PMC11110795, “Design, synthesis and antimycobacterial activity of imidazo[1,5-a]quinolines and their zinc-complexes” (RSC Medicinal Chemistry, 2024).
Converted amounts (≈) assume the structure as drawn. Where two headings read alike, the source gives them in different places.

How the values were obtained:
[1] = system: Staphylococcus aureus ATCC33592; assay: MIC, microtiter turbidity test; assay type: cell-based; conditions: read-out: MIC Sa
[2] = system: Escherichia coli ATCC35218; assay: MIC, microtiter turbidity test; assay type: cell-based
[3] = system: Mycobacterium tuberculosis H37Ra; assay: MIC, BacTiter-Glo ATP quantification, surrogate Mtb strain; assay type: cell-based; conditions: for MIC Mtb: Mycobacterium tuberculosis H37Ra, 7H9-palmitate, 7 days, BacTiter-Glo, n=3; for MIC: Mycobacterium tuberculosis, H37RA, 168 h, read-out: MIC Mtb, Mycobacterium tuberculosis H37Ra, 7H9-palmitate, 7 days, BacTiter-Glo, n=3
Description: The antimicrobial effect of the 21 synthesized compounds was initially accessed against a panel of 4 microbial indicator strains (Escherichia coli ATCC35218, Staphylococcus aureus ATCC33592, Septoria tritici MUCL45408 and Mycobacterium tuberculosis H37Ra). Cytotoxicity was investigated using an epithelia cell line from human lung carcinoma (Calu-3).
The minimum inhibitory concentration (MIC) of the […] compounds 5a-i, 6a-b,7a, 8a and C1-8 was determined as previously described with only minor changes. 6,7 Briefly, the cell density of an overnight cultures of Escherichia coli ATCC35218 and Staphylococcus aureus […] was diluted to 5 × 10^5 cells/mL in cation adjusted Mueller Hinton II medium (Becton Dickinson, Sparks, NV, USA) and distributed into 96-well plates. Three 12-point dilution series of rifampicin, tetracycline and gentamicin ranging from 64 - 0.03 µg/mL (all Sigma Aldrich, St. Louis, MO, USA), respectively, were used as positive controls. All tested compounds were dissolved in dimethyl sulfoxide (DMSO, Carl Roth GmbH + Co., Karlsruhe, Germany) and tested in triplicate at the same concentrations as the positive controls.
Bacterial suspensions without test compound or positive control were used as negative controls.
Medium background was averaged from 5 replicates. Assay incubation was done at 37°C, 180rpm and 85% relative humidity. The turbidity of each well was measured with a microplate spectrophotometer at 600 nm (LUMIstar® Omega BMG Labtech, Ortenberg, Germany). Growth inhibition was calculated relative to the absorption of the controls.
For S. tritici MUCL45408, a previously prepared spore solution was used to adjust the assay inoculum to 1 × 10^5 spores/mL in potato dextrose medium (Sigma Aldrich). Septoria assay plates were incubated for 4 days at 25°C, 180 rpm and 85% rH. Tebuconazole (Cayman Chemical Company, Ann Arbor, MI, USA) and amphotericin B (Sigma Aldrich) were used as positive control. Cell viability was evaluated via ATP quantification (BacTiter-Glo™, Promega, Walldorf, Germany) according to the manufacturer’s […]
Mycobacterium tuberculosis ITM-M006710 H37Ra (ATCC 9431) was incubated for 14 days in Middlebrook 7H9 broth (from ThermoFisher Scientific, Walthman, MA, USA) supplemented with 5.6 µg/mL palmitic acid (Sigma Aldrich), 1 mg/mL casitone (ThermoFisher Scientific), 5mg/mL BSA, 4µg/mL catalase (Sigma Aldrich), and 0.2% glycerol at 37°C, 180 rpm and 85% rH. In a first step, the culture was diluted to McFarland standard of 1, before the final inoculum density of a 1 × 10^6 cells/mL was obtained by further dilution with freshly prepared medium. Individual 12-point dilution series of rifampicin, ampicillin and gentamicin (ranging from 64-0.03 µg/mL) were used as positive controls. The assay plates were incubated for 7 days under microaerophilic conditions at 37°C/5% CO2 (BD gaspak CO2 system) and read-out was done by ATP quantification (s. above).
The MIC was defined as the minimum concentration where at least 85% growth inhibition relative to the negative control was measured. Relative inhibition for the microtiter turbidity tests (MTT) were […]
rel. inh.% = 100 * [1- (AU sample - AU Low)/(AU High - AU Low)]
AU: absorption unit at 600nm; Low: medium blank; High: negative control of maximal growth.
Accordingly, the BacTiter-Glo™ (BTG) assays were calculated as rel. inh.% = 100 * [1- (LU sample - LU Low)/(LU High - LU Low)]
AU: luminescence unit; Low: medium blank; High: negative control of maximal growth.
For Mycobacterium tuberculosis ATCC 35801 a resazurin microtiter assay was carried out as previously described8 Briefly, assay plates were set up by transferring 10 µl of compounds form a 1:2-fold dilution series in distilled and sterile water to a 96-well plate. The final assay´s concentrations range from 0.39-100 µM and as positive and negative control 5 µM rifampicin and 0.5% DMSO were used. Subsequently a bacterial suspension with Mycobacterium tuberculosis with a final OD560 of 0.0003 was prepared in […]

[4] = system: Septoria tritici MUCL45408; assay: MIC, BacTiter-Glo ATP quantification; assay type: cell-based; conditions: read-out: MIC Str
[5] = system: Mycobacterium tuberculosis ATCC 35801; assay: Resazurin microtiter assay, second-tier BSL-3; assay type: cell-based
in vitro = conditions: human
various Mtb strains = system: various Mtb strains; set-up: method as in PMID 27654337, PMID 29900893, PMID 36934122, PMID 32750539; conditions: cited from earlier work
[6] = Staphylococcus aureus ATCC33592 (MRSA), MHII medium, turbidity at 600 nm, n=3
[7] = Staphylococcus aureus, ATCC 33592 / MRSA
[8] = Escherichia coli ATCC35218, MHII medium, turbidity at 600 nm, n=3, read-out: MIC Ec
[9] = Escherichia coli, ATCC35218, read-out: MIC Ec
[10] = Septoria tritici MUCL45408, PDB medium, 4 days, BacTiter-Glo, n=3
[11] = Zymoseptoria tritici, MUCL45408, 96 h
[12] = ATCC 33592 / MRSA, Staphylococcus aureus ATCC33592 (MRSA), MHII medium, turbidity at 600 nm, n=3
[13] = Zymoseptoria tritici, 96 h, Septoria tritici MUCL45408, PDB medium, 4 days, BacTiter-Glo, n=3

c1ccc(-c2nc(-c3cccs3)c3ccc4ccccc4n23)cc1 [5a]
MIC [1, 6]: >196 µM
MIC [1, 7]: > 196 µM
MIC [2, 8]: >196 µM
MIC [2, 9]: > 196 µM
MIC Mtb [3]: >196 µM
MIC [3]: > 196 µM
MIC [4, 10]: >196 µM
MIC [4, 11]: > 196 µM

c1ccc(-c2nc(-c3ccccc3)n3c2ccc2ccccc23)cc1 [5b]
MIC [1, 12]: > 200 µM
MIC [1, 6]: >200 µM
MIC [2, 8]: >200 µM
MIC Mtb [3]: >200 µM
MIC [3]: > 200 µM
MIC [4, 10]: >200 µM
MIC [4, 13]: > 200 µM

c1ccc(-c2nc(-c3ccccn3)c3ccc4ccccc4n23)cc1 [5c]
MIC [1, 12]: > 199 µM
MIC [1, 6]: >199 µM
MIC [2, 8]: >199 µM
MIC [3]: 25 µM (≈ 8.03 µg/mL)
MIC [4, 10]: >199 µM
MIC [4, 13]: > 199 µM

c1ccc(-c2nc(-c3nccc4ccccc34)c3ccc4ccccc4n23)cc1 [5d]
MIC [1, 12]: > 172 µM
MIC [1, 6]: >172 µM
MIC [2, 8]: >172 µM
MIC [4, 10]: >172 µM
MIC [4, 13]: > 172 µM

c1ccc(-c2nc(-c3ncccn3)c3ccc4ccccc4n23)cc1 [5e]
MIC [1, 12]: > 148 µM
MIC [1, 6]: >148 µM
MIC [2, 8]: >148 µM
MIC [3]: 1 µM (≈ 0.322 µg/mL)
MIC [4, 10]: >148 µM
MIC [4, 13]: > 148 µM

c1ccc(-c2ccc(-c3nc(-c4ccccc4)n4c3ccc3ccccc34)nc2)cc1 [5f]
MIC [1, 12]: > 136 µM
MIC [1, 6]: >136 µM
MIC [2, 8]: >136 µM
MIC [3]: 34 µM (≈ 13.5 µg/mL)
MIC [4, 10]: >136 µM
MIC [4, 13]: > 136 µM

c1ccc(-c2nc(-c3cc4ccccc4cn3)c3ccc4ccccc4n23)cc1 [5g]
inhibition at 20 µM ([5]; ATCC35801, Mtb ATCC 35801, 20 μM): 82%
IC90 ([5]; ATCC35801, read-out: IC90 Mtb ATCC 35801, resazurin, 7 days + 24 h): 132 µM
IC50 ([5]; ATCC35801, resazurin, 7 days + 24 h, read-out: IC50 Mtb ATCC 35801): 86.5 µM
IC90 ([5]; ATCC35801, resazurin, 7 days + 24 h, read-out: IC90 Mtb ATCC 35801): 136 µM
MIC [1, 12]: > 144 µM
MIC [1, 6]: >144 µM
IC50 at 3 days (in vitro): > 100 µM
MIC [2, 8]: >144 µM
MIC [3]: ≤ 2 µM
MIC [4, 10]: >144 µM
MIC [4, 13]: > 144 µM

CN(C)c1ccccc1-c1nc(-c2ccccc2)n2c1ccc1ccccc12 [5h]
MIC [1, 12]: > 127 µM
MIC [1, 6]: >127 µM
MIC [2, 8]: >127 µM
MIC [3]: 2 µM (≈ 0.727 µg/mL)
MIC [4, 10]: >127 µM
MIC [4, 13]: > 127 µM

COc1ccccc1-c1nc(-c2ccccc2)n2c1ccc1ccccc12 [5i]
MIC [1, 12]: > 183 µM
MIC [1, 6]: >183 µM
MIC [2, 8]: >183 µM
MIC [3]: 46 µM (≈ 16.1 µg/mL)
MIC [4, 10]: >183 µM
MIC [4, 13]: > 183 µM

c1ccc(-c2nc(-c3ccccn3)n3c2ccc2ccccc23)nc1 [6a]
MIC [1, 12]: > 198 µM
MIC [1, 6]: >198 µM
MIC [2, 8]: >198 µM
MIC [4, 10]: >198 µM
MIC [4, 13]: > 198 µM

c1ccc(-c2nc(-c3ccccn3)n3c2ccc2ccccc23)cc1 [6b]
MIC [1, 12]: > 199 µM
MIC [1, 6]: >199 µM
MIC [2, 8]: >199 µM
MIC [4, 10]: >199 µM
MIC [4, 13]: > 199 µM

c1ccc(-c2nc(-c3cccc4ccccc34)n3c2ccc2ccccc23)nc1 [7a]
MIC [1, 12]: > 172 µM
MIC [1, 6]: >172 µM
MIC [2, 8]: >172 µM
MIC [4, 10]: >172 µM
MIC [4, 13]: > 172 µM

c1ccc(N(c2ccccc2)c2nc(-c3ccccn3)c3ccc4ccccc4n23)cc1 [8a]
MIC [1, 6]: >155 µM
MIC [1, 7]: > 155 µM
MIC [2, 8]: >155 µM
MIC [2, 9]: > 155 µM
MIC Mtb [3]: >155 µM
MIC [3]: > 155 µM
MIC [4, 10]: >155 µM
MIC [4, 11]: > 155 µM

C[C@@H]1[C@H](O)[C@@H](C)/C=C/C=C/C=C/C=C/C=C/C=C/C=C/[C@H](O[C@@H]2O[C@H](C)[C@@H](O)[C@H](N)[C@@H]2O)C[C@@H]2O[C@](O)(C[C@@H](O)C[C@@H](O)[C@H](O)CC[C@@H](O)C[C@@H](O)CC(=O)O[C@H]1C)C[C@H](O)[C@H]2C(=O)O [AMB, amphotericin B, reference compound]
MIC [4, 13]: 0.135 µM (≈ 0.125 µg/mL)

CC1(C)S[C@@H]2[C@H](NC(=O)[C@H](N)c3ccccc3)C(=O)N2[C@H]1C(=O)O [AMP, ampicillin, reference compound]
MIC [3]: 184 µM (≈ 64.3 µg/mL)

CC(=O)[O-].CC(=O)[O-].[Cu+2] [Cu(OAc)2, reference compound]
MIC Mtb [3]: 43 µM

[Cl][Fe]([Cl])[Cl] [FeCl3, reference compound]
MIC [1, 6]: > 394 µM
MIC [2, 8]: > 394 µM
MIC Mtb [3]: > 394 µM

CC(C)(C)C(O)(CCc1ccc(Cl)cc1)Cn1cncn1 (stereo not shown) [TEB, tebuconazole, reference compound]
MIC [4, 11]: > 0.01 µM

[Cl-].[Cl-].[Zn+2] [ZnCl2, reference compound]
MIC [1, 6]: > 470 µM
MIC [2, 8]: > 470 µM
MIC Mtb [3]: 235 µM

NCC[C@H](O)C(=O)N[C@@H]1C[C@H](N)[C@@H](O[C@H]2O[C@H](CN)[C@@H](O)[C@H](O)[C@H]2O)[C@H](O)[C@H]1O[C@H]1O[C@H](CO)[C@@H](O)[C@H](N)[C@H]1O [amikacin]
MIC, literature reported values (various Mtb strains): 0.4 to 1.7 µM

COc1nc2ccc(Br)cc2cc1[C@@H](c1ccccc1)[C@@](O)(CCN(C)C)c1cccc2ccccc12 [bendaquiline]
MIC, literature reported values (various Mtb strains): 0.03 to 1 µM

CC[C@@H](CO)NCCN[C@@H](CC)CO [ethambutol]
MIC, literature reported values (various Mtb strains): 0.3 to 3 µM

CNC(C)C1CCC(N)C(OC2C(N)CC(N)C(OC3OCC(C)(O)C(NC)C3O)C2O)O1 (stereo not shown) [gentamicin, reference compound]
MIC [3]: 4 µM (≈ 1.91 µg/mL)

NNC(=O)c1ccncc1 [isoniazid]
MIC, literature reported values (various Mtb strains): 0.3 to 1.4 µM

C[C@H]1COc2c(N3CCN(C)CC3)c(F)cc3c(=O)c(C(=O)O)cn1c23 [levofloxacin]
MIC, literature reported values (various Mtb strains): 0.8 to 1.4 µM

CO[C@H]1/C=C/O[C@@]2(C)Oc3c(C)c(O)c4c(O)c(c(/C=N/N5CCN(C)CC5)c(O)c4c3C2=O)NC(=O)/C(C)=C\C=C\[C@H](C)[C@H](O)[C@@H](C)[C@@H](O)[C@@H](C)[C@H](OC(C)=O)[C@@H]1C [rifampicin, reference compound]
MIC [1, 12]: > 78 µM
MIC [2, 8]: 5 µM (≈ 4.11 µg/mL)
MIC [3]: 0.07 µM (≈ 0.0576 µg/mL)
